{"source": "patent US20140357487A1", "about": "“PLANTS HAVING INCREASED TOLERANCE TO HERBICIDES” (BASF SE, priority 2011, published 2014)", "key": {"[1]": {"tested_on": "transgenic Arabidopsis plants overexpressing Synechocystis HPPD (Seq ID: 20)", "test": "Arabidopsis growth inhibition in 48-well plates, line overexpressing Synechocystis HPPD", "assay_type": "in vivo, Arabidopsis thaliana", "details": "Synechocystis (Seq ID: 20) overexpression line; plant growth IC50 of transgenic divided by that of wildtype plants", "description": "Various methods for the production of stably transformed plants are well known in the art. Coumarone-derivative herbicide tolerant soybean (Glycine max) or corn (Zea mays) plants can be produced by a method described by Olhoft et al. (US patent 2009/0049567). Briefly, HPPD or HST encoding polynucleotides are cloned into a binary vector using standard cloning techniques as described by Sambrook et al. (Molecular cloning (2001) Cold Spring Harbor Laboratory Press). The final vector construct contains an HPPD or HST encoding sequence flanked by a promoter sequence (e.g. the ubiquitin promoter (PcUbi) sequence) and a terminator sequence (e.g. the nopaline synthase terminator (NOS) sequence) and a resistance marker gene cassette (e.g. AHAS) (FIG. 2). Optionally, the HPPD or HST gene can provide the means of selection. Agrobacterium-mediated transformation is used to introduce the DNA into soybean's axillary meristem cells at the primary node of seedling explants. After inoculation and co-cultivation with Agrobacteria, the explants are transferred to shoot induction medium without selection for one week. […]\nDepending on the species, the plants are kept at 10-25° C. or 20-35° C. […] During this time, the plants are tended and their response to the individual treatments is evaluated. […] Tolerance to coumarone-derivative herbicides can also be assessed in Arabidopsis. […]"}, "Chlamydomonas HPPD1": {"tested_on": "Chlamydomonas HPPD1", "test": "HPPD activity assay, Chlamydomonas HPPD1", "assay_type": "biochemical, Chlamydomonas reinhardtii", "details": "normalized on Arabidopsis wild-type HPPD", "experimental": "HPPD produces homogentisic acid and CO2 from 4-hydroxyphenylpyruvate (4-HPP) and O2. The activity assay for HPPD is based on the analysis of homogentisic acid by reversed phase HPLC.\nThe assay mixture can contain 150 mM potassium phosphate buffer pH 7.0, 50 mM L-ascorbic acid, 1 μM FeSO4 and 7 μg of purified enzyme in a total volume of 1 ml.\nInhibitors are dissolved in DMSO (dimethylsulfoxide) to a concentration of 20 mM or 0.5 mM, respectively. From this stock solution serial five-fold dilutions are prepared in DMSO, which are used in the assay. The respective inhibitor solution accounts for 1% of the assay volume. Thus, final inhibitor concentrations range from 200 μM to 2.5 nM or from 5 μM to 63 pM, respectively. After a preincubation of 30 min the reaction is started by adding 4-HPP to a final concentration of 0.1 mM. The reaction is allowed to proceed for 120 min at room temperature. The reaction is stopped by addition of 100 μl of 4.5 M phosphoric acid.\nActivities are normalized by setting the uninhibited enzyme activity to 100%. IC50 values are calculated using non-linear regression.\nThe assay mixture can contain 150 mM potassium phosphate buffer pH 7.0, 50 mM L-ascorbic acid, 100 μM Catalase (Sigma-Aldrich), 1 μM FeSO4 and 0.2 units of purified HPPD enzyme in a total volume of 505 μl. […]\nInhibitors are dissolved in DMSO (dimethylsulfoxide) to a concentration of 0.5 mM. […] IC50 values are calculated using non-linear regression.\nUsing methods which are described in the above examples or well known in the art, purified, recombinant wildtype HPPD enzymes are characterized with respect to their kinetic properties and sensitivity towards HPPD inhibiting herbicides. Apparent michaelis constants (Km) and maximal reaction velocities (Vmax) are calculated by non-linear regression with the software GraphPad Prism 5 (GraphPad Software, La Jolla, USA) using a substrate inhibition model. […] Weighted means (by standard error) of Km and […] values are calculated from at least three independent experiments. […]"}}, "data": [{"smiles": "CC1=NOC(c2c(Cl)ccc(C3=C(O)c4ncccc4C(C)(C)S3(=O)=O)c2Cl)C1", "note": "(stereo not shown) [Inhibitor 1, 7-[2,4-dichloro-3-(3-methyl-4,5-dihydroisoxazol-5-yl)phenyl]-5,5-dimethyl-6,6-dioxo-thiopyrano[4,3-b]pyridin-8-ol]", "values": [{"measurement": "Tolerance factor", "setting": "[1]", "value": 1}, {"measurement": "Normalized tolerance index TI", "setting": "Chlamydomonas HPPD1", "value": 2.1}]}, {"smiles": "COCCOCc1c(Cl)ccc(C2=C(O)c3ncccc3C(C)(C)S2(=O)=O)c1Cl", "note": "[Inhibitor 3, 7-[2,4-dichloro-3-(2-methoxyethoxymethyl)phenyl]-5,5-dimethyl-6,6-dioxo-thiopyrano[4,3-b]pyridin-8-ol]", "values": [{"measurement": "Normalized tolerance index TI", "setting": "Chlamydomonas HPPD1", "value": 0.1}]}, {"smiles": "CC1(C)c2cccnc2C(O)=C(c2ccc(Cl)nc2Cl)S1(=O)=O", "note": "[Inhibitor 2, 7-(2,6-dichloro-3-pyridyl)-5,5-dimethyl-6,6-dioxo-thiopyrano[4,3-b]pyridin-8-ol]", "values": [{"measurement": "Tolerance factor", "setting": "[1]", "value": 1}]}]}
